Patent US20230295181A1, “INHIBITOR OF APOPTOSIS (IAP) PROTEIN ANTAGONISTS” (Sanford Burnham Prebys Medical Discovery Institute, priority 2020, published 2023)
Where a name gives a salt, the structure may show the parent alone.

Key:
OVCAR-4 = test: Cell viability (CellTiterGlo), OVCAR-4; type: cell-based; details: Homo sapiens
Method: (§1) Candidate compounds are tested in 384-well plates for effects on cell viability in the presence or absence of an appropriate conventional anticancer drug. Cell viability is indirectly monitored in the first instance using CellTiterGlo (Promega Corp., Madison, WI) (Table D). To determine if cell death is apoptotic, the induction of caspase activity is assessed utilizing the CaspaseGlo Assay system (Promega Corp., Madison, WI) (Table E). Cell viability is monitored 1 to 3 days after addition of compounds and conventional drugs. […] A compound of any of the formulae as disclosed herein is evaluated in combination with said anticancer drug to determine which ML-IAP antagonist can sensitize most efficaciously. Select candidate compounds are tested in 14 point drug dose response (DDR) curves in a 384-well format in order to establish potency in combination with decreasing concentrations of lung cancer relevant drug regimens. Furthermore, checker-board titrations of a conventional drug and the candidate molecules are performed to search for synergy (using ISOBOLOGRAM analysis). Compounds and combinations as described herein are also tested for cytotoxicity against normal human cells (e.g. primary fibroblasts, lymphocytes, hepatocytes, epithelial and endothelial cells) using known methods.
(§2) Cell viability was evaluated following treatment with a compound as disclosed in Table D. Viability of cancer cells following treatment is indicated according to the following legend: […]

SKOV-3 = test: Cell viability (CellTiterGlo), SKOV-3; type: cell-based; details: Homo sapiens, SK-OV-3
Method: as §1, §2

SKOV-3 cancer cell lines = test: SKOV-3 cell viability after treatment with 10 μM test compound; type: cell-based; details: for % viability after treatment with 10 micromolar of test compound (SKOV-3 cells): 10 micromolar test compound, hydrochloride; for viability at 10 µM: Homo sapiens, SK-OV-3, 10 micromolar test compound, SKOV-3 cells
Method: SKOV-3 cancer cell lines were treated with a test compound, either as a pure enantiomer or a mixture of stereoisomers, at a concentration of 10 μM. Cell viability was evaluated following treatment with a compound as disclosed in Table B. Viability of cancer cells following treatment is indicated according to the following legend:
A=0-25% viability B=26-50% viability C=>50% viability

Caspase 9 (SKOV-3) = test: Induction of caspase 9 activity (CaspaseGlo), SKOV-3; type: cell-based; details: Homo sapiens, SK-OV-3
Method: as §1
(§3) The induction of caspase activities was tested with a compound as disclosed in Table E. The activities are indicated according to the following legend: […]

Caspase 3/7 (SKOV-3) = test: Induction of caspase 3/7 activity (CaspaseGlo), SKOV-3; type: cell-based; details: Homo sapiens, SK-OV-3
Method: as §1, §3

[1] = In vivo PK plasma exposure in mice
Method: Pharmacokinetic (PK) studies are performed in vivo in mice for compounds as described herein. Standard formulations are evaluated, including hydroxypropyl methylcellulose, carboxymethylcellulose, and polyethylene glycol. For intravenous studies, compounds are administered via indwelling catheters in jugular vein and samples collected from the carotid artery. These experiments provide basic pharmacokinetic parameters including peak plasma concentration (Cmax), bioavailability (% F), exposure (AUC), half-life (t½), clearance (CL), volume of distribution (Vd), and brain levels. To measure bioavailability, a compound as described herein is administered to three animals/group, both orally (10 mg/kg) and intravenously (1 mg/kg). Intraperitoneally administration is also assessed in order to determine both brain and plasma levels of compounds.
The compounds described herein were tested in vivo in mice to measure PK plasma exposure as shown in Table F. The PK plasma values are indicated according to the following legend: […]

Caspase 3/7 (OVCAR-4) = test: Induction of caspase 3/7 activity (CaspaseGlo), OVCAR-4; type: cell-based; details: Homo sapiens
Method: as §1, §3

Row | Structure (SMILES) | IC50 (OVCAR-4) | IC50 (SKOV-3) | EC50 (Caspase 9 (SKOV-3)) | EC50 (Caspase 3/7 (SKOV-3)) | PK plasma exposure at 1 h (IP, 10 mg/kg) [1] | EC50 (Caspase 3/7 (OVCAR-4)) | % viability after treatment with 10 micromolar of test compound (SKOV-3 cells) (SKOV-3 cancer cell lines) | viability at 10 µM (SKOV-3 cancer cell lines)
1 | CN[C@@H](C)C(=O)N[C@H]1CCS[C@H]2CC(CCc3ccccc3)[C@@H](C(=O)N[C@@H]3CCCc4ccccc43)N2C1=O (stereo partly drawn) [Compound 44, (4S,9aS)-4-((S)-2-(methylamino)propanamido)-5-oxo-8,8-phenethyl-N—((R)-1,2,3,4-tetrahydronaphthalen-1-yl)octahydropyrrolo[2,1-b][1,3]thiazepine-7-carboxamide hydrochloride] | > 1000 nM | > 1000 nM | – | – | – | – | A (A=0-25% viability) | –
2 | CN[C@@H](C)C(=O)N[C@H]1CCS(=O)(=O)[C@H]2CC(C)(C)[C@@H](C(=O)N[C@@H]3CCCc4ccccc43)N2C1=O [Compound 1, (4S,7S,9aS)-8,8-dimethyl-4-((S)-2-(methylamino)propanamido)-5-oxo-N—((R)-1,2,3,4-tetrahydronaphthalen-1-yl)octahydropyrrolo[2,1-b][1,3]thiazepine-7-carboxamide 1,1-dioxide hydrochloride] | > 1000 nM | > 1000 nM | – | – | – | – | – | > 50%
3 | CN[C@@H](C)C(=O)N[C@H]1Cc2c([nH]c3ccccc23)[C@H]2CC(C)(C)C(C(=O)N[C@@H]3CCCc4ccccc43)N2C1=O (stereo in doubt) [Compound 2, (3R, 6S,12bR)-2,2-dimethyl-6-((S)-2-(methylamino)propanamido)-5-oxo-N—((R)-1,2,3,4-tetrahydronaphthalen-1-yl)-1,2,3,5,6,7,12,12b-octahydropyrrolo[1′,2′:1,2]azepino[3,4-b]indole-3-carboxamide hydrochloride] | > 1000 nM | > 1000 nM | – | – | – | – | – | 26 to 50%
4 | CCC1(CC)C[C@@H]2OCC[C@H](NC(=O)[C@H](C)NC)C(=O)N2[C@@H]1C(=O)N[C@@H]1CCCc2ccccc21 [Compound 21, (4S)-8,8-diethyl-4-((S)-2-(methylamino)propanamido)-5-oxo-N—((R)-1,2,3,4-tetrahydronaphthalen-1-yl)octahydropyrrolo[2,1-b][1,3]oxazepine-7-carboxamide hydrochloride] | 100 to 1000 nM | 10 to 100 nM | – | – | – | – | – | 0 to 25%
5 | C=CCC1C[C@@H]2OCC[C@H](NC(=O)[C@H](C)NC)C(=O)N2[C@@H]1C(=O)N[C@@H]1CCCc2ccccc21 (stereo partly drawn) [Compound 15, (4S,9aS)-8,8-allyl-4-((S)-2-(methylamino)propanamido)-5-oxo-N—((R)-1,2,3,4-tetrahydronaphthalen-1-yl)octahydropyrrolo[2,1-b][1,3]oxazepine-7-carboxamide hydrochloride] | > 1000 nM | 10 to 100 nM | – | – | – | – | – | 26 to 50%
6 | C=CCC1(CC=C)C[C@@H]2OCC[C@H](NC(=O)[C@H](C)NC)C(=O)N2[C@@H]1C(=O)N[C@@H]1CCCc2ccccc21 [Compound 14, (4S,9aS)-8,8-diallyl-4-((S)-2-(methylamino)propanamido)-5-oxo-N—((R)-1,2,3,4-tetrahydronaphthalen-1-yl)octahydropyrrolo[2,1-b][1,3]oxazepine-7-carboxamide hydrochloride] | 100 to 1000 nM | 100 to 1000 nM | – | – | – | – | – | 0 to 25%
7 | C=CCC1C[C@@H]2SCC[C@H](NC(=O)[C@H](C)NC)C(=O)N2[C@@H]1C(=O)N[C@@H]1CCCc2ccccc21 (stereo partly drawn) [Compound 32, (4S,9aS)-8,8-allyl-4-((S)-2-(methylamino)propanamido)-5-oxo-N—((R)-1,2,3,4-tetrahydronaphthalen-1-yl)octahydropyrrolo[2,1-b][1,3]thiazepine-7-carboxamide hydrochloride] | > 1000 nM | 10 to 100 nM | – | – | – | – | A (A=0-25% viability) | –
8 | C=CCC1(CC=C)C[C@@H]2SCC[C@H](NC(=O)[C@H](C)NC)C(=O)N2[C@@H]1C(=O)N[C@@H]1CCCc2ccccc21 [Compound 29, (4S,9aS)-8,8-diallyl-4-((S)-2-(methylamino)propanamido)-5-oxo-N—((R)-1,2,3,4-tetrahydronaphthalen-1-yl)octahydropyrrolo[2,1-b][1,3]thiazepine-7-carboxamide hydrochloride] | > 1000 nM | > 1000 nM | – | – | – | – | A (A=0-25% viability) | –

The next lines start with results.

Row | IC50 (OVCAR-4) | IC50 (SKOV-3) | EC50 (Caspase 9 (SKOV-3)) | EC50 (Caspase 3/7 (SKOV-3)) | PK plasma exposure at 1 h (IP, 10 mg/kg) [1] | EC50 (Caspase 3/7 (OVCAR-4)) | Structure (SMILES) | % viability after treatment with 10 micromolar of test compound (SKOV-3 cells) (SKOV-3 cancer cell lines) | viability at 10 µM (SKOV-3 cancer cell lines)
9 | > 1000 nM | 100 to 1000 nM | – | – | – | – | CN[C@@H](C)C(=O)N[C@H]1CCS[C@H]2CC(CCc3ccccc3)(CCc3ccccc3)[C@@H](C(=O)N[C@@H]3CCCc4ccccc43)N2C1=O [Compound 45, (4S,9aS)-4-((S)-2-(methylamino)propanamido)-5-oxo-8,8-diphenethyl-N—((R)-1,2,3,4-tetrahydronaphthalen-1-yl)octahydropyrrolo[2,1-b][1,3]thiazepine-7-carboxamide hydrochloride] | – | 0 to 25%
10 | > 1000 nM | > 1000 nM | – | – | – | – | CN[C@@H](C)C(=O)N[C@H]1CCOC2CC(C)(C)[C@@H](C(=O)Nc3ccccc3-c3ncccn3)N2C1=O (stereo partly drawn) [Compound 55, (4S,7S)-8,8-dimethyl-4-((S)-2-(methylamino)propanamido)-5-oxo-N-(2-(pyrimidin-2-yl)phenyl)octahydropyrrolo[2,1-b][1,3]oxazepine-7-carboxamide hydrochloride] | – | > 50%
11 | 100 to 1000 nM | 10 to 100 nM | – | – | – | – | CN[C@@H](C)C(=O)N[C@H]1CCO[C@H]2CC(C)(C)[C@@H](C(=O)N[C@@H]3CCOc4ccccc43)N2C1=O [Compound 74, (4S,7S,9aS)—N—((R)-chroman-4-yl)-8,8-dimethyl-4-((S)-2-(methylamino)propanamido)-5-oxooctahydropyrrolo[2,1-b][1,3]oxazepine-7-carboxamide hydrochloride] | – | 0 to 25%
12 | 10 to 100 nM | 1 to 10 nM | 1 to 10 nM | 1 to 10 nM | iii (iii=500-1000 nM) | 1 to 10 nM | CC[C@H](NC)C(=O)N[C@H]1CCS[C@H]2CC(C)(C)[C@@H](C(=O)N[C@@H]3CCCc4ccccc43)N2C1=O.Cl [Compound 79, (4S,7S,9aS)-8,8-dimethyl-4-((S)-2-(methylamino)butanamido)-5-oxo-N—((R)-1,2,3,4-tetrahydronaphthalen-1-yl)octahydropyrrolo[2,1-b][1,3]thiazepine-7-carboxamide hydrochloride] | – | 0 to 25%
13 | > 1000 nM | > 1000 nM | – | – | – | – | CN[C@@H](C)C(=O)N[C@H]1CCO[C@H]2CC(C)(C)[C@@H](C(=O)NCCC(C)C)N2C1=O [Compound 70, (4S,7S,9aS)—N-isopentyl-8,8-dimethyl-4-((S)-2-(methylamino)propanamido)-5-oxooctahydropyrrolo[2,1-b][1,3]oxazepine-7-carboxamide hydrochloride] | – | > 50%
14 | 10 to 100 nM | 10 to 100 nM | – | – | – | – | CN[C@@H](C)C(=O)N[C@H]1CC(CSc2ccccc2)O[C@H]2CC(C)(C)C(C(=O)N[C@@H]3CCCc4ccccc43)N2C1=O (mixture of isomers) [Compound 75, rac-(4R)-8,8-dimethyl-4-((R)-2-(methylamino)propanamido)-5-oxo-2-((phenylthio)methyl)-N—((S)-1,2,3,4-tetrahydronaphthalen-1-yl)octahydropyrrolo[2,1-b][1,3]oxazepine-7-carboxamide hydrochloride] | – | 0 to 25%
